The values below come from patent US20250145608A1, “KRAS DEGRADING COMPOUNDS COMPRISING ANNULATED 2-AMINO-3-CYANO THIOPHENES” (Boehringer Ingelheim Int'l GmbH Corp., priority 2021, published 2025).

Type in all cases: cell-based
Experiment [1] concerns the target T1, KRAS4B WT (Homo sapiens, UniProt P01116).
T1 construct: HiBit; expressed in transfected cells; host or cells: GP5d cells (ECACC 95090715), stably transduced with lentivirus, CMV promoter
In words: HiBit KRAS4B mutant spectrum degradation assay, KRAS4B WT in GP5d cells (18 h). The settings on record: KRAS mutation G12WT. The text has this:
(§1) The therapeutically relevant mutant KRAS constructs (WT, G12C, G12D, G12V, G13D) were obtained by site directed mutagenesis using a KRAS4B WT cDNA construct as a template. GP5d cells (ECACC Cat. No. 95090715) were transduced with lentiviral vectors expressing mutant KRAS4B cDNA under control of a CMV promoter. Stably transduced cells were selected using a neomycin selectable marker encoded on the construct.
(§2) To assess PROTAC-mediated degradation of various KRAS mutants, GP5d cells stably transduced with KRAS4B constructs as described above were seeded at 25000 cells per well in 100 μL Dulbecco's Modified Eagle medium (Sigma cat. no. D6429) supplemented with 10% fetal calf serum into white bottom opaque 96 well plates (Perkin Elmer cat no. 5680). Plates were incubated at 37° C., 5% CO2 in a humidified incubator over night to allow the cells to adhere. […] Plates were further incubated at 37° C. for 18 hours. Following incubation, 100 μL per well Promega Nano-Glo HiBit lytic detection reagent mix (Promega Nano-Glo HiBit Lytic Detection System #N3050), prepared according to the manufacturer's instructions in the kit, were added. To allow for adequate cell lysis, plates were incubated on an orbital shaker for 15 min and further incubated 30 min at room temperature. Upon completion of cell lysis, luminescence was measured using an Envision plate reader using the Ultrasensitive Luminescence Protocol for 96 well plates. Luminescence levels were normalized by the values obtained with DMSO-treated samples and plotted as percent of DMSO control. DC50 values were computed using a four parametric logistic model and are reported in nM in Table 65 for representative example (Ex.) compounds of the invention. Dmax values represent the maximal extent of degradation observed and is stated as percent of control (% Ctrl.) treatments in Table 66 for representative example (Ex.) compounds of the invention.
In general terms: The HiBiT peptide binds its large partner to form an active luciferase.

Experiment [2] concerns the target T2, KRAS4B G12V (Homo sapiens, UniProt P01116, G12V).
T2 construct: HiBit; expressed in transfected cells; host or cells: GP5d cells (ECACC 95090715), stably transduced with lentivirus, CMV promoter
The experiment can be described thus: HiBit KRAS4B mutant spectrum degradation assay, KRAS4B G12V in GP5d cells (18 h). Conditions: KRAS mutation G12V.
Description: as §1, §2

The test system of experiment [3] is SW620 cells. In words: SW620 cell proliferation assay (colorectal cancer, G12V), 5 days. Conditions: Homo sapiens, SW-620, 120 h. How it is done: SW620 Cell Proliferation Assay (Colorectal Cancer, G12V)
(§3) SW620 cells (ATCC CCL-227) are dispensed into white bottom opaque 96 well plates (Perkin Elmer cat no. 5680) at a density of 2000 cells per well in 100 μL DMEM (BioWhittaker, Cat #BE12-605F) supplemented with 10% FCS. […] Compounds (10 mM stock in DMSO) are added at logarithmic dose series using the HP Digital Dispenser D300 (Tecan), normalizing for added DMSO. For the TO time point measurement, untreated cells are analysed at the time of compound addition. Plates are incubated for 5 days, and cell viability is measured using CellTiter-Glo luminescent cell viability reagent (Promega, Cat. No G7570). Viability (stated as percent of control) is defined as relative luminescence units RLU of each well divided by the RLU of cells in DMSO controls. IC50 values were computed from relative viability values using a four parametric logistic model.

Experiment [4] concerns the target T3, KRAS4B G12D (Homo sapiens, UniProt P01116, G12D).
T3 construct: HiBit; expressed in transfected cells; host or cells: GP5d cells (ECACC 95090715), stably transduced with lentivirus, CMV promoter
In words: HiBit KRAS4B mutant spectrum degradation assay, KRAS4B G12D in GP5d cells (18 h). Conditions: KRAS mutation G12D.
Description: as §1, §2

The test system of experiment [5] is NCI-H358 cells. In words: NCI-H358 CTG proliferation assay (120 h) (NSCLC, G12C). The settings on record: Homo sapiens. In short, it runs like this: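 NCI-H358 cells (KRAS G12C) were seeded at 2000/well (assay 1) or 200/well (assay 2) in RPMI-1640 + 10% FCS and dosed with a logarithmic series, DMSO-normalized. After 120 h, viability was read by CellTiter-Glo luminescence as percent of DMSO control, with a T0 read at dosing. IC50 came from a four-parameter fit.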

Experiment [6] has as its target T4, KRAS4B G13D (Homo sapiens, UniProt P01116, G13D).
T4 construct: HiBit; expressed in transfected cells; host or cells: GP5d cells (ECACC 95090715), stably transduced with lentivirus, CMV promoter
In words: HiBit KRAS4B mutant spectrum degradation assay, KRAS4B G13D in GP5d cells (18 h). The settings on record: KRAS mutation G13D.
Description: as §1, §2

In experiment [7] the test system is GP5d cells. The experiment can be described thus: GP5d cell proliferation assay (colorectal cancer, G12D), 5 days. The settings on record: Homo sapiens, 120 h. The procedure: GP5d Cell Proliferation Assay (Colorectal Cancer, G12D)
as §3, with “GP5d” for “SW620”, “(ECACC 95090715)” for “(ATCC CCL-227)”, “plates” for “plates (Perkin Elmer cat no. 5680)”, “5000” for “2000”

The target in experiment [8] is T5, KRAS(G12D) (Homo sapiens, UniProt P01116, G12D).
T5 construct: introduced immediately downstream of the initiating Methionine codon of the endogenous KRAS locus; host or cells: GP5d-HiBit-KRAS(G12D), a CRISPR knock-in at the endogenous locus
In words: HiBit degradation assay in GP5d-HiBit-KRAS(G12D) cells (18 h; DC50, Dmax). In short, it runs like this:
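GP5d cells carry an endogenous N-terminal HiBit tag on KRAS(G12D), knocked in by CRISPR. They were seeded overnight in DMEM/10% FCS, exposed to compound for 18 h at 37° C, then lysed for HiBit luminescence, normalised to DMSO. DC50 comes from a four-parameter logistic fit; Dmax is maximal degradation as % of control.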

SMILES strings stand for the structures. Read-outs that look alike come from different tables or passages of the source.

T2 sequence (P01116 1-188 isoform P01116-2 G12V): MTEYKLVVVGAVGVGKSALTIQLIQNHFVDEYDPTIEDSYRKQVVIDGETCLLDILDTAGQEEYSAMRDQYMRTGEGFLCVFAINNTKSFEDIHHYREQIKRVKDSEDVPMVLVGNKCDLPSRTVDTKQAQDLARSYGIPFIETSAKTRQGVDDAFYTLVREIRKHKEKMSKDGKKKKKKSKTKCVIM
T5 sequence (P01116 1-188 isoform P01116-2 G12D): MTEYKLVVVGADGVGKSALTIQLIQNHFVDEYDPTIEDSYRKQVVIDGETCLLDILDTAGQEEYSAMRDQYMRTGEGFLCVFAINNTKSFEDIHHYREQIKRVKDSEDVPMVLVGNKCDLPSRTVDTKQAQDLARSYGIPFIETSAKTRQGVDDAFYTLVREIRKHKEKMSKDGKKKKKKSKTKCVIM
T3 sequence (P01116 1-188 isoform P01116-2 G12D): as above
T1 sequence (P01116 1-188 isoform P01116-2): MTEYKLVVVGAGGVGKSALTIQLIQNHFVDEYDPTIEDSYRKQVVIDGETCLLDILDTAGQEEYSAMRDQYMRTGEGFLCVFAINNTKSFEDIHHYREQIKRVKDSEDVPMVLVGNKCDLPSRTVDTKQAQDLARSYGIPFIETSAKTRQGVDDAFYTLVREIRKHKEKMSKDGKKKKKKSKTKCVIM
T4 sequence (P01116 1-188 isoform P01116-2 G13D): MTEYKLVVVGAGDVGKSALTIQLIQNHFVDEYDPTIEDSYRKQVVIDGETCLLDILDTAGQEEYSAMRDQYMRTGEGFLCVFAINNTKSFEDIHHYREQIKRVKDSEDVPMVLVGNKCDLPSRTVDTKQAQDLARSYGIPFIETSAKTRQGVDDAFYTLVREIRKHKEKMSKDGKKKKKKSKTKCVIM

By DC50 is commonly meant the midpoint of the concentration-degradation curve. By IC50 is commonly meant the concentration that inhibits the measured activity by half. For `Cc1ncsc1-c1ccc(CNC(=O)[C@@H]2C[C@@H](O)CN2C(=O)[C@@H](NC(=O)CCCCCN2CCCN(c3nccc(-c4noc([C@@]5(C)CCCc6sc(N)c(C#N)c65)n4)n3)[C@@H](C)C2)C(C)(C)C)cc1` [I-47], the DC50 in experiment [1] is 36.2 nM; in experiment [2], 98.8 nM; in experiment [4], 48 nM; in experiment [6] it was 44.9 nM; in experiment [8], 47.7 nM. Moreover, the “Dmax at 18 h” value in experiment [1] amounted to 95.4 % Ctrl; in experiment [2], 90 % Ctrl; in experiment [4], 94 % Ctrl; in experiment [6] it was 90 % Ctrl. For the same compound, the IC50 was determined as 280 nM in experiment [3]; 2500 nM in experiment [5] (assay 1, read-out: H358 (assay 1) IC50); 168 nM in experiment [5] (assay 2, read-out: H358 (assay 2) IC50); 141 nM in experiment [7]. In experiment [8], the “Dmax 18 h” value is 94 % Ctrl.
